Source: US20150252047A1, “SUBSTITUTED INDAZOL-PYRROLOPYRIMIDINES USEFUL IN THE TREATMENT OF HYPERPROLIFERATIVE DISEASES” (BAYER PHARMA AKTIENGESELLSCHAFT, priority 2012, published 2015)

Target: T1, human full-length MKNK1 (Homo sapiens, UniProt Q9BUB5, T385D)
T1 construct: GST (N); purchased Carna Biosciences 02-145; host or cells: insect cells (baculovirus expression system)
Experiment: MKNK1 kinase high ATP assay (TR-FRET)
Type: biochemical
Conditions: high ATP (2 mM final), 15 min preincubation with enzyme, 30 min reaction at 22° C.
Procedure: MKNK1-inhibitory activity at high ATP of compounds of the present invention after their preincubation with MKNK1 was quantified employing the TR-FRET-based MKNK1 high ATP assay as described in the following paragraphs.
A recombinant fusion protein of Glutathione-S-Transferase (GST, N-terminally) and human full-length MKNK1 (amino acids 1-424 and T344D of accession number BAA 19885.1), expressed in insect cells using baculovirus expression system and purified via glutathione sepharose affinity chromatography, was purchased from Carna Biosciences (product no 02-145) and used as enzyme. As substrate for the kinase reaction the biotinylated peptide biotin-Ahx-IKKRKLTRRKSLKG (C-terminus in amide form) was used, which can be purchased e.g. from the company Biosyntan (Berlin-Buch, Germany).
For the assay 50 nL of a 100 fold concentrated solution of the test compound in DMSO was pipetted into a black low volume 384 well microtiter plate (Greiner Bio-One, Frickenhausen, Germany), 2 μL of a solution of MKNK1 in aqueous assay buffer [50 mM HEPES pH 7.5, 5 mM MgCl2, 1.0 mM dithiothreitol, 0.005% (v/v) Nonidet-P40 (Sigma)] was added and the mixture was incubated for 15 min at 22° C. to allow pre-binding of the test compounds to the enzyme before the start of the kinase reaction. Then the kinase reaction was started by the addition of 3 μL of a solution of adenosine-tri-phosphate (ATP, 3.3 mM=>final conc. in the 5 μL assay volume is 2 mM) and substrate (0.1 μM=>final conc. in the 5 μL assay volume is 0.06 μM) in assay buffer and the resulting mixture was incubated for a reaction time of 30 min at 22° C. The concentration of MKNK1 was adjusted depending of the activity of the enzyme lot and was chosen appropriate to have the assay in the linear range, typical concentrations were in the range of 0.003 μg/mL. The reaction was stopped by the addition of 5 μL of a solution of TR-FRET detection reagents (5 nM streptavidine-XL665 [Cisbio Bioassays, Codolet, France] and 1 nM anti-ribosomal protein S6 (pSer236)-antibody from Invitrogen [#44921G] and 1 nM LANCE EU-W1024 Labeled ProteinG [Perkin-Elmer, product no. AD0071]) in an aqueous EDTA-solution (100 mM EDTA, 0.1% (w/v) bovine serum albumin in 50 mM HEPES pH 7.5).
The resulting mixture was incubated for 1 h at 22° C. to allow the formation of complex between the phosphorylated biotinylated peptide and the detection reagents. Subsequently the amount of phosphorylated substrate was evaluated by measurement of the resonance energy transfer from the Eu-chelate to the streptavidine-XL. Therefore, the fluorescence emissions at 620 nm and 665 nm after excitation at 350 nm were measured in a TR-FRET reader, e.g. a Rubystar (BMG Labtechnologies, Offenburg, Germany) or a Viewlux (Perkin-Elmer). The ratio of the emissions at 665 nm and at […] was taken as the measure for the amount of phosphorylated substrate. The data were normalised (enzyme reaction without inhibitor=0% inhibition, all other assay components but no enzyme=100% inhibition).

T1 sequence (Q9BUB5 1-424 isoform Q9BUB5-2 T344D): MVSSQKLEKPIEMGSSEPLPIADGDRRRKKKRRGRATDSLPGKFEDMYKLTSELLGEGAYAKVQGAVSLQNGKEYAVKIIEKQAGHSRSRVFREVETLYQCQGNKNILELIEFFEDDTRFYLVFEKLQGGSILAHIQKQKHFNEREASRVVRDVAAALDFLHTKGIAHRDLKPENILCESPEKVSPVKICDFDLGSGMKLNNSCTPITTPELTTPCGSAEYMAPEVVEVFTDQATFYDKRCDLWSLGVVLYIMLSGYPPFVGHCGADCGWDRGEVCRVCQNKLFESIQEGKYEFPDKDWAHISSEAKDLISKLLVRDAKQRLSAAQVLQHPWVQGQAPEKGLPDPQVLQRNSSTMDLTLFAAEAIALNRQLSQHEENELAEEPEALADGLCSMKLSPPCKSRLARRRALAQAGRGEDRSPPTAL

Row | Structure (SMILES) | IC50
1 | COc1cc2[nH]ncc2cc1Nc1ncnc2[nH]ccc12 [Example 2, N-(6-methoxy-1H-indazol-5-yl)-7H-pyrrolo[2,3-d]pyrimidin-4-amine] | 17 nM
2 | CC(C)NC(=O)c1c[nH]c2ncnc(Nc3cc4cn[nH]c4cc3F)c12 [Example 18, 4-[(6-Fluoro-1H-indazol-5-yl)amino]-N-(propan-2-yl)-7H-pyrrolo[2,3-d]pyrimidine-5-carboxamide] | 9 nM
3 | Cc1cc2[nH]ncc2cc1Nc1ncnc2[nH]cc(C(=O)N(C)C)c12 [Example 12, N,N-Dimethyl-4-[(6-methyl-1H-indazol-5-yl)amino]-7H-pyrrolo[2,3-d]pyrimidine-5-carboxamide] | 211 nM
4 | O=C(O)c1c[nH]c2ncnc(Nc3cc4cn[nH]c4cc3F)c12 [Example 10, 4-[(6-Fluoro-1H-indazol-5-yl)amino]-7H-pyrrolo[2,3-d]pyrimidine-5-carboxylic acid] | 14 nM
5 | COc1cc2[nH]ncc2cc1Nc1ncnc2[nH]cc(C(=O)O)c12 [Example 4, 4-[(6-methoxy-1H-indazol-5-yl)amino]-7H-pyrrolo[2,3-d]pyrimidine-5-carboxylic acid] | 72 nM
6 | CC(C)Oc1cc2[nH]ncc2cc1Nc1ncnc2[nH]ccc12 [Example 24, N-[6-(Propan-2-yloxy)-1H-indazol-5-yl]-7H-pyrrolo[2,3-d]pyrimidin-4-amine] | 26 nM
7 | CC(C)Oc1cc2[nH]ncc2cc1Nc1ncnc2[nH]c(CCCO)cc12 [Example 33, 3-(4-{[6-(Propan-2-yloxy)-1H-indazol-5-yl]amino}-7H-pyrrolo[2,3-d]pyrimidin-6-yl)propan-1-ol] | 35 nM
8 | CC(C)NC(=O)c1c[nH]c2ncnc(Nc3cc4cn[nH]c4cc3OC(C)C)c12 [Example 31, N-(Propan-2-yl)-4-{[6-(propan-2-yloxy)-1H-indazol-5-yl]amino}-7H-pyrrolo[2,3-d]pyrimidine-5-carboxamide] | 94 nM
9 | COc1cc2[nH]ncc2cc1Nc1ncnc2[nH]c(Br)cc12 [Example 20, 6-Bromo-N-(6-methoxy-1H-indazol-5-yl)-7H-pyrrolo[2,3-d]pyrimidin-4-amine] | 13 nM
10 | COc1cc2[nH]ncc2cc1Nc1ncnc2[nH]c(C#CCO)cc12 [Example 22, 3-{4-[(6-Methoxy-1H-indazol-5-yl)amino]-7H-pyrrolo[2,3-d]pyrimidin-6-yl}prop-2-yn-1-ol] | 11 nM
11 | Cc1cc2[nH]ncc2cc1Nc1ncnc2[nH]cc(C(=O)NC(C)C)c12 [Example 14, 4-[(6-Methyl-1H-indazol-5-yl)amino]-N-(propan-2-yl)-7H-pyrrolo[2,3-d]pyrimidine-5-carboxamide] | 34 nM
12 | COc1cc2[nH]ncc2cc1Nc1ncnc2[nH]cc(C(=O)NC(C)C)c12 [Example 6, N-isopropyl-4-[(6-methoxy-1H-indazol-5-yl)amino]-7H-pyrrolo[2,3-d]pyrimidine-5-carboxamide] | 16 nM
13 | CCc1[nH]c2ncnc(Nc3cc4cn[nH]c4cc3OC)c2c1C [Example 1, 6-Ethyl-N-(6-methoxy-1H-indazol-5-yl)-5-methyl-7H-pyrrolo[2,3-d]pyrimidin-4-amine] | 3 nM
14 | COc1cc2[nH]ncc2cc1Nc1ncnc2[nH]cc(C(=O)N3CCN(C)CC3)c12 [Example 5, {4-[(6-methoxy-1H-indazol-5-yl)amino]-7H-pyrrolo[2,3-d]pyrimidin-5-yl}(4-methylpiperazin-1-yl)methanone] | 110 nM

Now from value to compound:

Row | IC50 | Structure (SMILES)
15 | 2 nM | CC(C)Oc1cc2[nH]ncc2cc1Nc1ncnc2[nH]c(S(=O)(=O)c3ccccc3)cc12 [Example 52, 6-(Phenylsulfonyl)-N-[6-(propan-2-yloxy)-1H-indazol-5-yl]-7H-pyrrolo[2,3-d]pyrimidin-4-amine]
16 | 2 nM | Cc1ccc(S(=O)(=O)c2cc3c(Nc4cc5cn[nH]c5cc4OC(C)C)ncnc3[nH]2)cc1 [Example 53, 6-[(4-Methylphenyl)sulfonyl]-N-[6-(propan-2-yloxy)-1H-indazol-5-yl]-7H-pyrrolo[2,3-d]pyrimidin-4-amine]
17 | 1 nM | CCOC(=O)c1[nH]c2ncnc(Nc3cc4cn[nH]c4cc3OC(C)C)c2c1Br [Example 63, Ethyl 5-bromo-4-{[6-(propan-2-yloxy)-1H-indazol-5-yl]amino}-7H-pyrrolo[2,3-d]pyrimidine-6-carboxylate]
18 | < 1 nM | CCOC(=O)c1[nH]c2ncnc(Nc3cc4cn[nH]c4cc3OC)c2c1Br [Example 47, Ethyl 5-bromo-4-[(6-methoxy-1H-indazol-5-yl)amino]-7H-pyrrolo[2,3-d]pyrimidine-6-carboxylate]
19 | 2 nM | COc1cc2[nH]ncc2cc1Nc1ncnc2[nH]c(C(=O)N3CCC3)c(Br)c12 [Example 66, Azetidin-1-yl{5-bromo-4-[(6-methoxy-1H-indazol-5-yl)amino]-7H-pyrrolo[2,3-d]pyrimidin-6-yl}methanone]
20 | 1 nM | CCc1c[nH]c2ncnc(Nc3cc4cn[nH]c4cc3OC)c12 [Example 57, 5-Ethyl-N-(6-methoxy-1H-indazol-5-yl)-7H-pyrrolo[2,3-d]pyrimidin-4-amine]
21 | 3 nM | CCOC(=O)c1cc2c(Nc3cc4cn[nH]c4cc3OC)ncnc2[nH]1 [Example 42, Ethyl 4-[(6-methoxy-1H-indazol-5-yl)amino]-7H-pyrrolo[2,3-d]pyrimidine-6-carboxylate]
22 | 34 nM | CC(C)Oc1cc2[nH]ncc2cc1Nc1ncnc2[nH]c(Br)cc12 [Example 36, 6-Bromo-N-[6-(propan-2-yloxy)-1H-indazol-5-yl]-7H-pyrrolo[2,3-d]pyrimidin-4-amine]
23 | 21 nM | CCCc1[nH]c2ncnc(Nc3cc4cn[nH]c4cc3OC(C)C)c2c1CC [Example 45, 5-Ethyl-N-[6-(propan-2-yloxy)-1H-indazol-5-yl]-6-propyl-7H-pyrrolo[2,3-d]pyrimidin-4-amine]
24 | 1 nM | COc1cc2[nH]ncc2cc1Nc1ncnc2[nH]cc(C#N)c12 [Example 35, 4-[(6-Methoxy-1H-indazol-5-yl)amino]-7H-pyrrolo[2,3-d]pyrimidine-5-carbonitrile]
25 | 16 nM | COc1cc2[nH]ncc2cc1Nc1ncnc2[nH]cc(C(F)(F)F)c12 [Example 49, N-(6-Methoxy-1H-indazol-5-yl)-5-(trifluoromethyl)-7H-pyrrolo[2,3-d]pyrimidin-4-amine]
26 | 4 nM | COc1cc2[nH]ncc2cc1Nc1ncnc2[nH]c(C(=O)N(C)CCN(C)Cc3ccccc3)c(Br)c12 [Example 62, N-{2-[Benzyl(methyl)amino]ethyl}-5-bromo-4-[(6-methoxy-1H-indazol-5-yl)amino]-N-methyl-7H-pyrrolo[2,3-d]pyrimidine-6-carboxamide]
27 | 2 nM | CC(C)Oc1cc2[nH]ncc2cc1Nc1ncnc2[nH]cc(C#N)c12 [Example 34, 4-[(6-Isopropoxy-1H-indazol-5-yl)amino]-7H-pyrrolo[2,3-d]pyrimidine-5-carbonitrile]
28 | 37 nM | CC(C)Oc1cc2[nH]ncc2cc1Nc1ncnc2[nH]c(S(C)(=O)=O)cc12 [Example 54, 6-(Methylsulfonyl)-N-[6-(propan-2-yloxy)-1H-indazol-5-yl]-7H-pyrrolo[2,3-d]pyrimidin-4-amine]
29 | 2 nM | COc1cc2[nH]ncc2cc1Nc1ncnc2[nH]c(C(=O)N3CCCCC3)c(Br)c12 [Example 60, {5-Bromo-4-[(6-methoxy-1H-indazol-5-yl)amino]-7H-pyrrolo[2,3-d]pyrimidin-6-yl}(piperidin-1-yl)methanone]
30 | 14 nM | COc1cc2[nH]ncc2cc1Nc1ncnc2[nH]c(C(=O)NCC(=O)N(C)C)c(Br)c12 [Example 68, 5-Bromo-N-[2-(dimethylamino)-2-oxoethyl]-4-[(6-methoxy-1H-indazol-5-yl)amino]-7H-pyrrolo[2,3-d]pyrimidine-6-carboxamide]
31 | < 1 nM | COc1cc2[nH]ncc2cc1Nc1ncnc2[nH]c(S(=O)(=O)c3ccccc3)cc12 [Example 50, N-(6-Methoxy-1H-indazol-5-yl)-6-(phenylsulfonyl)-7H-pyrrolo[2,3-d]pyrimidin-4-amine]
32 | 98 nM | Fc1cc2[nH]ncc2cc1Nc1ncnc2[nH]c(Br)cc12 [Example 55, 6-Bromo-N-(6-fluoro-1H-indazol-5-yl)-7H-pyrrolo[2,3-d]pyrimidin-4-amine]
